Experimental data taken from publication PMC6895199, “A new antiviral scaffold for human norovirus identified with computer-aided approaches on the viral polymerase” (Scientific Reports, 2019).
Like-named read-outs stand apart in the source and are kept apart here.

Key:
[1] = Cytotoxicity by the MTS method on uninfected cells; type: cell-based; details: mouse, uninfected RAW 264.7 cells, Table 2, at least three independent experiments
Experimental: Cytotoxicity: The cytotoxicity of the Compounds was evaluated by the MTS method, by exposing uninfected cells to the same concentrations of compounds for 3 days. The %cell viability was calculated as (ODtreated/ODCC) × 100, where ODCC is the OD of uninfected untreated cells and ODtreated are uninfected cells treated with compound. The CC50 was defined as the compound concentration that reduces the number of viable cells by 50%[34].

HuNoV (GII.4) RdRp [2] = target: HuNoV (GII.4) RdRp (Norovirus Hu/GII.4/Sydney/NSW0514/2012/AU, UniProt K4L8Z7); assay: Quantitative fluorescent RdRp activity assay (PicoGreen, poly(C) template); type: biochemical, human norovirus Sydney 2012
Experimental: The newly synthesised compounds, including the carboxylate ester derivatives 34–35 and 7 from the Core Hopping approach, were evaluated for their enzymatic inhibition of human norovirus Sydney 2012 (HuNoV (GII.4)) RdRp activity in vitro, using a quantitative fluorescent assay. Compounds were tested at six different concentrations (concentration range examined: 0.1–100 µM) and compared to the relative activity of mock treated samples containing the vehicle only (0.5% DMSO [vol/vol]). PPNDS [Pyridoxal-5′-phosphate-6-(2′-naphthylazo-6′-nitro-4′,8′-disulfonate) tetrasodium salt], a previously reported potent inhibitor of NoV RdRp activity, and 1 were used as positive controls. Dose-dependent inhibitory response curves were used to establish IC50 values for the eight test compounds, as reported in Table 1 (see also Supplementary Fig. S1).
The newly prepared compounds 48–60 were initially evaluated against norovirus Sydney 2012 RdRp activity in vitro using a quantitative fluorescent assay. Compounds were tested at a fixed concentration of 20 µM and compared to the relative activity of mock treated samples. PPNDS and 1 were used as positive controls. […] These two rings are structural features present in 1 and in one of its derivatives we have previously reported. […] From these observations, the thiophene ring appears not to influence inhibitory activity. Derivatives in which the central core of 48 has been used to link the two terminal hydrophobic rings of 1 or of its derivatives we have previously reported[25] (55, 57, 58) appear to retain the RdRp inhibitory activity found for 48 (~20% at 20 µM). A similar effect is obtained when a sulfonyl group, as in our hit 1, is used to link ring 2, regardless if it is a thiazole (59) or an unsubstituted phenyl ring (60), to the rest of the molecule. […] Overall, even if showing a reduced biochemical activity in comparison with 1, some of the new derivatives can be considered as modest HuNoV RdRp inhibitors at 20 µM.
(§1) Fluorescent RdRp activity assays were carried out as previously described[12],[29]. Briefly, RdRp activity was quantified by monitoring the formation of double-stranded RNA (dsRNA) from a single stranded homopolymeric template, poly(C) (Sigma Aldrich), using the fluorescent dye PicoGreen (Life Technologies, Carlsbad, CA, USA). RdRp assays were performed in 384-well plates, and each reaction mixture contained 400 ng enzyme, 45 μM GTP, 10 ng/μL poly(C) RNA, 2.5 mM MnCl2, 5 mM dithiothreitol, (DTT), 0.01% bovine serum albumin (BSA), and 0.005% Tween 20 in 20 mM Tris-HCl, pH 7.5, with a final reaction volume of 25 μL. The PPNDS and compound 1 were used as a positive controls. RdRps were incubated for 10 mins at 30 °C in the presence of the test compounds or the compound vehicle DMSO (0.5% vol/vol) before addition into the reaction mixture, which was then allowed to run 15 min at 30 °C then terminated with 10 mM EDTA, followed by PicoGreen staining and dsRNA quantitation. GraphPad Prism V6.05 (La Jolla, CA, USA) was used to plot the IC50 values. A secondary gel-based polymerase activity assay was used as a counter-screen as described below, to exclude the possibility of RdRp activity enhancement. Primed elongation activity was examined in a gel-based assay as previously described[12],[29] using the RNA template (PE44-NoV). Gels were imaged using BioRad (Hercules, CA, U.SA) Geldoc Universal Hood II, running BioRad Image Lab software, V4.1, build 16.

MNV = MNV CPE reduction assay (MTS) in RAW 264.7 cells; type: cell-based, mouse norovirus (MNV-1.CW1); details: Norovirus, RAW264.7, in Mus musculus, Table 2, RAW 264.7, range 0.6–100 µM, at least three independent experiments
Experimental: The newly prepared compounds 2–7 and 34–35 were evaluated for their antiviral effect against the genogroup V mouse norovirus (MNV) using the mouse macrophage cell line RAW264.7. This assay evaluates the ability of the compounds to protect infected cells from the virus-induced cytopathic effect, thus being suitable to identify inhibition of virus replication at every step of the virus life cycle, and representing a robust cellular assay available for the rapid evaluation of potential norovirus inhibitors. Compounds identified using MNV have shown effects against HuNoV in vitro and in vivo, as in the case of nucleoside RdRp inhibitor 2′-C-methylcytidine (2CMC)[34]–[36]. Unfortunately, despite not presenting the aqueous solubility issues we had previously encountered for 1[29], no significant antiviral effect could be observed in this assay for the new compounds up to the maximum concentration tested. The new structural modifications, despite retaining inhibition of the RdRp in an isolated enzyme activity assay and showing no cytotoxic effects at the test concentrations in the MNV antiviral assay (Supplementary Table S1), are correlated with a lack of antiviral activity. As these new structures present the same limitation of most non-nucleoside HuNoV polymerase inhibitors reported so far[22], we were prompted to apply a different computer-aided strategy to further modify the scaffold of 1, with the aim to achieve an antiviral effect in cellular systems. […]
Since the main scope of this work was to find new norovirus inhibitors which show antiviral effects against both the HuNoV RdRp and in norovirus-infected cells, priority was given to the evaluation of most of the new molecules for their antiviral activity against MNV in infected RAW cells. The nucleoside 2′-C-methylcytidine was used as positive control. The test compounds were evaluated at eight different concentrations (range 0.6–100 µM) and their ability to reduce the virus-induced cytopathic effect was assessed.
(§2) Cells and virus: MNV (virus strain MNV-1.CW1) was propagated in RAW 264.7 cells grown in DMEM (Life Technologies, Gent, Belgium) supplemented with 10% or 2% FBS, 2 mM L-glutamine, 20 mM HEPES, 0.075 g/L sodium bicarbonate, 1 mM sodium pyruvate, 100 U penicillin/mL and 100 µg/mL streptomycin at 37 °C in a humidified atmosphere of 5% CO2. The human norovirus GI.1 replicon harboring gastric tumor-1 cell line (HGT-NV) (kindly provided by Dr. Ian Goodfellow, University of Cambridge) was maintained in DMEM supplemented with 10% FBS, 2mM L-glutamine, 0.075 g/L sodium bicarbonate and 1.0 mg/ml of Geneticin (G418; Life Technologies), at 37 °C in a humidified atmosphere of 5% CO2[34].
Antiviral assay with MNV: The antiviral activity of the Compounds was determined using an MTS [3-(4,5-dimethylthiazol-2-yl)-5-(3-carboxymethoxyphenyl)-2-(4-sulfophenyl)-2H-tetrazolium]-based cytopathic effect (CPE) reduction assay. […] Then, a MTS-phenazinemethosulfate (MTS/PMS) stock solution [(2 mg/mL MTS (Promega, Leiden, The Netherlands) and 46 µg/mL PMS (Sigma–Aldrich, Bornem, Belgium) in PBS at pH 6–6.5)] was diluted 1/20 in MEM (Life Technologies, Gent, Belgium) and 75 µL were added to each well. After 2 h, the optical density (OD) was read at 498 nm. The %CPE reduction was calculated as [(ODtreated)MNV − ODVC]/[ODCC − ODVC] × 100, where ODCC represents the OD of the uninfected untreated cells, whereas ODVC and (ODtreated)MNV represent the OD of infected untreated cells and virus-infected cells treated with a compound concentration, respectively. The 50% effective concentration (EC50) was defined as the compound concentration that protected 50% of the cells from virus-induced CPE[34].

HuNoV GI.1 replicon = assay: HuNoV GI replicon assay (HGT-NV cells, qRT-PCR); type: cell-based, human norovirus GI.1
Experimental: Given that in this system the gene encoding for the major capsid protein is replaced by a neomycin resistance gene, no new virus particles will be produced but the non-structural proteins are expressed and the replication of the genomic RNA can be studied.
as §2
Antiviral assay with the HGT-NV replicon: The inhibitory effect of Compounds on human norovirus replication was assessed by quantification of the levels of HuNoV GI replicon RNA and of the reference (housekeeping) gene β-actin mRNA [by quantitative reverse transcription polymerase chain reaction (qRT-PCR)]. To this end, HGT cells (2000 cells/well) were seeded in 96-well plates, in complete DMEM without the selection marker G418. Following an incubation period of 24 h, a serial dilution of rupintrivir was added to the cultures. After 72 h of incubation, cell monolayers were washed with phosphate-buffered saline (PBS) and collected for quantification of RNA load by qRT-PCR. Intracellular RNA was extracted from cells using the cell-to-cDNA lysis buffer (Ambion, Life Technologies). For detection of HuNoV GI replicon RNA, forward (5′-CCG GCT ACC TGC CCA TTC-3′), reverse (5′-CCAGATCATCCTGATCGACAAG-3′) primers and probe (5′-FAM-ACATCGCATCGAGCGAGCACGTAC-TAMRA-3′) for the neomycin gene were used. For detection of β-actin mRNA, forward (5′-GGCATCCACGAAACTACCTT-3′), reverse (5′-AGCACTGTGTTGGCGTACAG-3′) primers and probe (5′-HEX-ATCATGAAGTGTGACGTGGACATCCG-BHQ1–3′) were used. One-step qRT-PCR was performed in a 20 µL reaction mixture containing 10 µl 2X iTaq Universal SYBR® Green one step reaction mix (Bio-rad, California, USA), 5.17 µl RNAse free water, 0.5 µl of iScript reverse transcriptase (Bio-rad, California, USA), 4 µl of the template RNA and either 300 nM of HuNoV GI replicon primers and probe, 300 nM of β-actin primers and 200 nM of probe. Cycling conditions were: reverse transcription at 50 °C for 10 min, initial denaturation at 95 °C for 3 min, followed by 40 cycles of denaturation at 95 °C for 15 s, annealing and extension at 60 °C for 30 seconds (Roche Lightcycler®96, Roche Diagnostics, Belgium). To determine the relative expression levels of HuNoV GI replicon RNA, β-actin was used as a normalizer and ratios were calculated using the Pfaffl method. The Expression Ratio (HuNoV GI Replicon/β-actin) was calculated as: Expression Ratio = (E HuNoV)^ΔCT, HuNoV (CC – TC)/(Eβ-actin)^ΔCT, β-actin (CC – TC), where E HuNoV and Eβ-actin represent the amplification efficiency (E = 10^–1/slope) for the HuNoV GI replicon and β-actin qRT-PCR reactions, respectively. ΔCT, HuNoV (CC – TC) is the Ct of untreated control cells (CC) minus the Ct of cells treated with a compound concentration (TC) obtained with HuNoV GI replicon primers and probe. ΔCT, β-actin (CC – TC) is the Ct of untreated control cells (CC) minus the Ct of cells treated with a compound concentration (TC) obtained with β-actin primers and probe. Efficiency values (E HuNoV and Eβ-actin) were determined for each qRT-PCR reaction.

HuNoV (GII.4) RdRp [3] = assay: Counter-screen gel-shift assay of primed elongation activity (PE44-NoV template); type: biochemical, human norovirus; details: fixed concentration of 100 μM
Experimental: To further confirm RdRp inhibition and exclude any potential false positives from the first fluorescence RdRp assay, the eight molecules were then assessed using a gel-shift enzyme activity assay at a fixed concentration of 100 μM, following a procedure previously adopted by our research group.
Figure 5 A counter-screen gel-shift assay was used to confirm HuNoV (GII.4) RdRp inhibitory activity of compounds 2, 3, 34 and 35 (A), 4, 5, 6 (B) and 7 (C). The eight compounds were examined for inhibition of primed elongation activity. PE44-NoV RNA templates (32 nucleotides) were extended (44 nucleotides) by the RdRp in the absence of any test compounds (0.5% DMSO [vol/vol] negative control) or with test compounds at a fixed concentration of 100 μM. […] Full-length gels are presented in Supplementary Fig. S3.
as §1

[4] = Norwalk virus, HGT-1, 72 h, read-out: EC50 values (column head printed 'M'), HuNoV GI replicon in HGT-1 cells, replicon RNA by qRT-PCR

SMILES | CC50 at 3 days [1] | EC50 (MNV) | EC50 (HuNoV GI.1 replicon; [4]) | other results
Cc1ccc(C(=O)NC(=S)Nc2ccc(N3CCN(C(=O)c4ccccc4)CC3)cc2)cc1 [Compound 57, N-((4-(4-Benzoylpiperazin-1-yl)phenyl)carbamothioyl)-4-methylbenzamide] | > 100 µM | > 100 µM |  | inhibition at 20 µM (HuNoV (GII.4) RdRp [2]; 20 µM, read-out: inhibition of HuNoV RdRp activity at fixed concentration): ~20%
O=C(NC(=S)Nc1ccc(N2CCN(S(=O)(=O)c3cccs3)CC2)cc1)c1ccccc1 [Compound 59, N-((4-(4-(Thiophen-2-ylsulfonyl)piperazin-1-yl)phenyl)carbamothioyl)benzamide] | > 100 µM | 43.8 ± 16.9 µM | 10 µM | EC50 values (column head printed 'M') (HuNoV GI.1 replicon; HuNoV GI replicon in HGT-1 cells, 72 h, replicon RNA by qRT-PCR): low micromolar range; EC50 (HuNoV GI.1 replicon; read-out: EC50 values (column head printed 'M'), HuNoV GI replicon in HGT-1 cells, 72 h, replicon RNA by qRT-PCR): 10.9 ± 11.1 µM
Cc1nc(N=Nc2cc(S(=O)(=O)[O-])c3cc([N+](=O)[O-])cc(S(=O)(=O)[O-])c3c2)c(COP(=O)([O-])[O-])c(C=O)c1O.[Na+].[Na+].[Na+].[Na+] [PPNDS, Pyridoxal-5′-phosphate-6-(2′-naphthylazo-6′-nitro-4′,8′-disulfonate) tetrasodium salt, reference compound] |  |  |  | inhibition of primed elongation activity (gel-shift) (HuNoV (GII.4) RdRp [3]): complete inhibition; IC50 (HuNoV (GII.4) RdRp [2]; HuNoV (GII.4) RdRp activity, six concentrations 0.1–100 µM, mean ± SD): 1.5 ± 0.25 µM
CCOC(=O)/C=C/[C@H](C[C@@H]1CCNC1=O)NC(=O)[C@@H](CC(=O)[C@@H](NC(=O)c1cc(C)on1)C(C)C)Cc1ccc(F)cc1 [Rupintrivir, reference compound] |  |  | 1.5 ± 0.4 µM | 
